Our source for the absorption maximum values is the Deep4Chem optical property database.

A short description of this series: solvent given as SMILES.

Take `O=CC1=Cc2cocc2C=C(C=O)C1`: the absorption maximum (in ClC(Cl)Cl) is 303 nm.
The compound `O=C1c2ccccc2S(=O)(=O)c2ccc(-n3c4ccccc4c4ccccc43)cc21` returned an absorption maximum (in C1CCOC1) of 404 nm; an absorption maximum (in CCCCCC) of 404 nm; an absorption maximum (in Cc1ccccc1) of 404 nm; an absorption maximum (in ClC(Cl)Cl) of 404 nm; an absorption maximum (in ClCCl) of 404 nm.
In turn, `CCOC(=O)c1ccc(O)c(-c2[nH]c(=O)n3c2-c2ccccc2C3=O)c1` gave an absorption maximum (in CC#N) of 391 nm, an absorption maximum (in CO) of 395 nm and an absorption maximum (in ClCCl) of 399 nm.
Turning to `Cc1cc(=O)oc2ccc3ccc(O)cc3c12`, the absorption maximum is, setting by setting: (in CC#N) 347 nm; (in CCO) 350 nm.
For `CCC1(CC)c2cc(B(c3c(C)cc(C)cc3C)c3c(C)cc(C)cc3C)ccc2-c2c1c1c(c3c2C(CC)(CC)c2cc(N(c4ccccc4)c4ccccc4)ccc2-3)C(CC)(CC)c2cc(B(c3c(C)cc(C)cc3C)c3c(C)cc(C)cc3C)ccc2-1`, the absorption maximum reads like this: (in C1CCOC1) 362 nm; (in CC#N) 359 nm; (in CC(C)=O) 360 nm; (in CCCCCC) 361 nm; (in CCCO) 360 nm; (in CCO) 360 nm. Also, the absorption maximum by setting is: (in Cc1ccccc1) 363 nm; (in ClC(Cl)Cl) 364 nm.
For the setting “in ClCCl”, `N#Cc1cc(/C=C/c2ccc(N(c3ccccc3)c3ccccc3)cc2)ccc1/C=C/c1ccc(/C=C/c2ccc(N(c3ccccc3)c3ccccc3)cc2)cc1` displayed an absorption maximum of 433 nm.
Regarding `CC1=CC(C)=[N+]2C1=Cc1c3ccccc3c(C#Cc3ccccc3)n1[B-]2(F)F`, the absorption maximum was 608 nm (in CCCCCC); 612 nm (in CCCCCCCCO); 606 nm (in CCOC(C)=O); 612 nm (in CN(C)C=O); 612 nm (in ClCCl).
For the setting “in ClCCl”, `COc1ccc2c(c1)-c1cc3c(cc1[Si]2(c1ccccc1)c1ccccc1)-c1ccccc1[Si]3(c1ccccc1)c1ccccc1` showed an absorption maximum of 334 nm.
In turn, `c1cc2ccc3cc4[nH]ccc4c4ccc(c1)c2c34` displayed an absorption maximum (in CCOC(C)=O) of 384 nm.
In turn, `[NH3+]c1cc([NH3+])cc(-c2[nH+]c3ccccc3s2)c1` displayed an absorption maximum (in O) of 328 nm.
For the compound `N#CC(C#N)=C(c1ccc(N(c2ccccc2)c2ccccc2)cc1)c1ccc(N(c2ccccc2)c2ccccc2)cc1`, the absorption maximum by setting is: (in C1CCCCC1) 367.21 nm; (in CC(C)=O) 370.45 nm; (in CN(C)C=O) 374.03 nm; (in Cc1ccccc1) 374.03 nm; (in ClC(Cl)Cl) 381.49 nm.
Turning to `Cc1c2c(c(C)c3ccccc13)C1=CC3Nc4ccccc4NC3C=C12` (stereo not drawn), the absorption maximum (in ClC(Cl)Cl) stood at 470 nm.
On to `Fc1ccc(C2=NC(c3ccccc3)C(N(c3ccccc3)c3ccccc3)S2)cc1` (stereo not drawn), for which the absorption maximum (in ClC(Cl)Cl) was determined as 363 nm.
`CCCCCCCCCCCCCCCCCCN1C(=O)c2ccc3c4ccc5c6c(ccc(c7ccc(c2c37)C1=O)c64)C(=O)NC5=O` had an absorption maximum (in CN(C)C=O) of 523 nm.
Take `CCn1c2ccccc2c2cc(C#Cc3cc(C#Cc4ccc5c(c4)c4ccccc4n5CC)ncn3)ccc21`: the absorption maximum (in C1CCOC1) is 382 nm; the absorption maximum (in CCOC(C)=O) is 379 nm; the absorption maximum (in CN(C)C=O) amounted to 386 nm; the absorption maximum (in Cc1ccccc1) is 383 nm; the absorption maximum (in ClCCl) came to 386 nm.
On to `CC1=[N+]2C(=C(c3ccccc3C)c3ccc(C)n3[B-]2(F)F)C=C1c1cc2n(c1)[B-](F)(F)[N+]1=CC=CC1=C2c1c(C)cc(C)cc1C`, for which the absorption maximum is on record as 595 nm (in C1CCCCC1) and 599 nm (in CCOC(C)=O).
Turning to `O=C1NC(c2ccccc2)=C/C1=C\c1ccccc1`, where the note is “in C1COCCO1”, the absorption maximum came to 422 nm.
In turn, `CCCCCCCCCc1c2ccccc2cc2c1oc1c3c(c4ccccc4c12)-c1c(c2oc4cc5ccccc5cc4c2c2ccccc12)OCO3` showed an absorption maximum (in C1CCOC1) of 397 nm.
Consider `Cc1ccc2nc3cc4c(cc3c(-c3ccccc3)c2c1)[Si](C)(C)O[Si](C)(C)O[Si]4(C)C`, for which the absorption maximum (in ClCCl) is recorded as 371 nm.
On to `FC(F)(F)C(F)(F)C(F)(F)C1=NC2=C(Br)C=C3c4cc(Br)c5nc(C(F)(F)C(F)(F)C(F)(F)F)nc6c(Br)cc(c4c56)=C4C=C(Br)C(=N1)C2C34` (stereo not drawn), for which the absorption maximum (in C1CCOC1) came to 475 nm.
In turn, `COc1ccc(-c2ccc(-c3ccc(F)cc3)cc2)cc1` yielded an absorption maximum (in C1COCCO1) of 291 nm.
`C[Si](C)(C)C#Cc1cc2ccc3cc(C#C[Si](C)(C)C)cc4ccc(c1)c2c34` showed an absorption maximum (in Cc1ccccc1) of 407 nm.
With `c1ccc2c(c1)CCc1ccccc1N2c1c2ccccc2cc2ccccc12`, the absorption maximum (in Cc1ccccc1) is 426 nm.
For the setting “in ClCCl”, `CCN(CC)c1ccc2c(-c3ccccc3C(=O)O)c3c([o+]c2c1)/C(=C/c1ccc(N2CCCC2)s1)CCC3` had an absorption maximum of 738 nm.
Compound `Oc1ccc2ccccc2c1/C=N/C1CCCCC1/N=C/c1c(O)ccc2ccccc12` (stereo not drawn) came in with an absorption maximum (in CC#N) of 397 nm.
Regarding `CCCCCCCCCCCCN1C(=O)c2c(c3ccc4cc(-c5ccc(F)cc5)c(OC)cc4c3c3c2ccc2cc(-c4ccc(F)cc4)c(OC)cc23)C1=O`, the absorption maximum (in ClCCl) is given as 431 nm.
Regarding `Nc1ccc2c(c1)C(=O)c1ccccc1-2`, the absorption maximum by setting is: (in C1CCCCC1) 455 nm; (in CC#N) 481 nm; (in CCO) 488 nm; (in c1ccccc1) 469 nm.
In the case of `Cc1ccc(N(c2ccc(C)cc2)c2ccc(-c3ccc(-c4ccc(N(c5ccc(C)cc5)c5ccc(C)cc5)cc4)c4nsnc34)cc2)cc1`, the absorption maximum came out at 474 nm (in Cc1ccccc1) and 485 nm (in ClCCl).
Regarding `CCCCC(CC)Cn1c2cc(C#N)ccc2c2ccc(C#Cc3ccc4ccc5c(C#Cc6ccc7c8ccc(C#N)cc8n(CC(CC)CCCC)c7c6)cc(C#Cc6ccc7c8ccc(C#N)cc8n(CC(CC)CCCC)c7c6)c6ccc3c4c56)cc21` (stereo not drawn), the absorption maximum (in ClCCl) worked out at 447 nm.
`N#Cc1nc(N(Cc2ccccc2Cl)Cc2ccccc2Cl)c(C#N)nc1N(Cc1ccccc1Cl)Cc1ccccc1Cl` returned an absorption maximum (in ClC(Cl)Cl) of 485 nm.
In turn, `c1ccc2c(c1)-c1ccccc1C21c2ccccc2-c2ncccc21` gave an absorption maximum (in CC1CCCO1) of 314 nm.
Under “in Cc1ccccc1”, `CC(C)(C)c1ccc2c(c1)c1cc(C(C)(C)C)ccc1n2-c1cc(C(=O)c2cccnc2)cc(-n2c3ccc(C(C)(C)C)cc3c3cc(C(C)(C)C)ccc32)c1` gave an absorption maximum of 381 nm.
Turning to `COc1ccc2c(c1)[n+]([O-])nc(N)[n+]2[O-]`, the absorption maximum runs as follows: (in CC#N) 432 nm; (in O) 440 nm.
Regarding `CC(=O)c1ccc(/C=C/C=C/C2=NC3C(=O)NC(N)=NC3N2[C@H]2C[C@H](O)[C@@H](CO)O2)cc1` (stereo partly drawn), the absorption maximum runs as follows: (in CC#N) 392 nm; (in CO) 388 nm.
In the case of `CC(C)(C)c1ccc2c(c1)c1cc(C(C)(C)C)cc3c1n2-c1cc(-c2ccccc2F)cc2c1B3c1cc(C(C)(C)C)cc3c4cc(C(C)(C)C)ccc4n-2c13`, the absorption maximum (in Cc1ccccc1) came to 471.56 nm.
On to `CCCCCCN1C(=O)c2cccc3cc(/N=C\c4cnc5ccccc5c4)cc(c23)C1=O`, for which, for the setting “in ClC(Cl)Cl”, the absorption maximum is given as 328 nm.
In the case of `c1cc2cccc3c4cccc5cccc(c(c1)c23)c54`, the absorption maximum by setting is: (in C1CCCCC1) 435 nm; (in ClC(Cl)Cl) 438.5 nm; (in ClCCl) 438 nm.
`CN(C)c1ccc2cc(C(/C=C/c3cn(C)c4ccccc34)=C(C#N)C#N)c(=O)oc2c1`: the absorption maximum came out at 455 nm (in C1CCOC1); 452 nm (in C1COCCO1); 471 nm (in CN(C)C=O); 477 nm (in CS(C)=O); 461 nm (in ClCCl).
Take `C1=Nc2cccc3cccc(c23)N1`: the absorption maximum by setting is: (in CC#N) 329 nm; (in CO) 329 nm; (in CS(C)=O) 333 nm; (in Cc1ccccc1) 331 nm.
The compound `CC1(C)c2ccccc2N(c2ccccc2)c2ccc(-c3ccc(-c4ccc5c(c4)C(C)(C)c4ccccc4N5c4ccccc4)c4nsnc34)cc21` gave an absorption maximum (in Cc1ccccc1) of 475.42 nm.
`CCCCCCCCN1c2ccc(C#Cc3cc(C(F)(F)F)cc(C(F)(F)F)c3)cc2Sc2cc(C=O)ccc21`: the absorption maximum runs as follows: (in C1CCOC1) 382 nm; (in CC#N) 386 nm; (in CCCCCC) 372 nm; (in CO) 366 nm; (in CS(C)=O) 396 nm; (in Cc1ccccc1) 381.01 nm. The compound also displayed an absorption maximum (in ClC(Cl)Cl) of 386 nm.
Take `COC(=O)C(Cc1ccc2oc(-c3ccc(-n4c5ccccc5c5ccccc54)cc3)nc2c1)NC(=O)OC(C)(C)C` (stereo not drawn): the absorption maximum was 340 nm (in C1CCCCC1); 341.8 nm (in C1CCOC1); 341.4 nm (in C1COCCO1); 341.41 nm (in CC1CCCO1); 340 nm (in CC#N); 341.8 nm (in CC(C)(C)O). For the same compound, the absorption maximum worked out at 340.7 nm (in CC(C)=O); 339.9 nm (in CC(C)CC(C)(C)C); 340.48 nm (in CC(C)O); 342.3 nm (in CC(O)CO); 342.5 nm (in CCCCCCCO); 342.59 nm (in CCCCCCO). Besides, the absorption maximum runs as follows: (in CCCCCO) 340.8 nm; (in CCCCO) 341.8 nm; (in CCO) 340.48 nm; (in CCOC(C)=O) 340.02 nm; (in CCOCC) 339.6 nm; (in CN(C)C=O) 342.11 nm. Besides, the absorption maximum came out at 339.7 nm (in CO), 343.6 nm (in CS(C)=O), 342.61 nm (in Cc1ccccc1) and 343.21 nm (in OCCO).
Regarding `C(=C\c1ccccc1)/c1ccccc1`, the absorption maximum (in CC#N) came out at 307 nm.
For the setting “in ClCCl”, `c1ccc(N(c2ccccc2)c2ccc(-c3ccc(-c4cc(-c5ccccn5)nc(-c5ccccn5)c4)cc3)cc2)cc1` displayed an absorption maximum of 284 nm.
